Biological target: T1, F508del (Homo sapiens, UniProt P13569, DEL508-508)
T1 construct: expressed in transfected cells
Experiment: Membrane potential optical assay (FRET voltage-sensor dyes), identification of correction compounds
Format: cell-based
Details: NIH3T3 cells stably expressing F508del, procedures described above; for Emax: maximum efficacy, read-out: Max Efficacy; for EC50: modulation of CFTR activity
Description: (§1) NIH3T3 mouse fibroblasts stably expressing F508del are used for optical measurements of membrane potential. The cells are maintained at 37° C. in 5% CO2 and 90% humidity in Dulbecco's modified Eagle's medium supplemented with 2 mM glutamine, 10% fetal bovine serum, 1×NEAA, β-ME, 1× pen/strep, and 25 mM HEPES in 175 cm^2 culture flasks. For all optical assays, the cells were seeded at 12,000 cells/well in 384-well matrigel-coated plates and cultured for 18-24 hrs at 37° C. for the potentiator assay. For the correction assays, the cells are cultured at 37° C. with and without compounds for 18-24 hours.
Membrane potential optical methods for assaying F508del modulation properties of compounds.
The optical membrane potential assay utilized voltage-sensitive FRET sensors described by Gonzalez and Tsien (See Gonzalez, J. E. and R. Y. Tsien (1995) “Voltage sensing by fluorescence resonance energy transfer in single cells” Biophys J 69(4): 1272-80, and Gonzalez, J. E. and R. Y. Tsien (1997) “Improved indicators of cell membrane potential that use fluorescence resonance energy transfer” Chem Biol 4(4): 269-77) in combination with instrumentation for measuring fluorescence changes such as the Voltage/Ion Probe Reader (VIPR) (See, Gonzalez, J. E., K. Oades, et al. (1999) “Cell-based assays and instrumentation for screening ion-channel targets” Drug Discov Today 4(9): 431-439).
These voltage sensitive assays are based on the change in fluorescence resonant energy transfer (FRET) between the membrane-soluble, voltage-sensitive dye, DiSBAC2(3), and a fluorescent phospholipid, CC2-DMPE, which is attached to the outer leaflet of the plasma membrane and acts as a FRET donor. Changes in membrane potential (Vm) cause the negatively charged DiSBAC2(3) to redistribute across the plasma membrane and the amount of energy transfer from CC2-DMPE changes accordingly. The changes in fluorescence emission were monitored using VIPR™ II, which is an integrated liquid handler and fluorescent detector designed to conduct cell-based screens in 96- or 384-well microtiter plates.
To identify small molecules that correct the trafficking defect associated with F508del; a single-addition HTS assay format was developed. The cells were incubated in serum-free medium for 16 hrs at 37° C. in the presence or absence (negative control) of test compound. As a positive control, cells plated in 384-well plates were incubated for 16 hrs at 27° C. to “temperature-correct” F508del. The cells were subsequently rinsed 3× with Krebs Ringers solution and loaded with the voltage-sensitive dyes. To activate F508del, 10 μM forskolin and the CFTR potentiator, genistein (20 μM), were added along with Cl^−-free medium to each well. The addition of Cl^−-free medium promoted Cl^− efflux in response to F508del activation and the resulting membrane depolarization was optically monitored using the FRET-based voltage-sensor dyes.
• Bath Solution #1: (in mM) NaCl 160, KCl 4.5, CaCl2 2, MgCl2 1, HEPES 10, pH 7.4 with NaOH. • Chloride-free bath solution: Chloride salts in Bath Solution #1 (above) are substituted with gluconate salts. • CC2-DMPE: Prepared as a 10 mM stock solution in DMSO and stored at −20° C. • DiSBAC2(3): Prepared as a 10 mM stock in DMSO and stored at −20° C. Cell Culture
as §1, with “seeded at 30,000/well in 384-well” for “seeded at 12,000 cells/well in 384-well”, “cultured for 2 hrs at” for “cultured for 18-24 hrs at”, “37° C. before culturing at 27° C. for 24 hrs for the” for “37° C. for the”, “cultured at 27° C. or 37° C.” for “cultured at 37° C.”, “compounds for 16-24 hours.” for “compounds for 18-24 hours.”

T1 sequence (P13569 with tags, fused parts or gaps DEL508-508): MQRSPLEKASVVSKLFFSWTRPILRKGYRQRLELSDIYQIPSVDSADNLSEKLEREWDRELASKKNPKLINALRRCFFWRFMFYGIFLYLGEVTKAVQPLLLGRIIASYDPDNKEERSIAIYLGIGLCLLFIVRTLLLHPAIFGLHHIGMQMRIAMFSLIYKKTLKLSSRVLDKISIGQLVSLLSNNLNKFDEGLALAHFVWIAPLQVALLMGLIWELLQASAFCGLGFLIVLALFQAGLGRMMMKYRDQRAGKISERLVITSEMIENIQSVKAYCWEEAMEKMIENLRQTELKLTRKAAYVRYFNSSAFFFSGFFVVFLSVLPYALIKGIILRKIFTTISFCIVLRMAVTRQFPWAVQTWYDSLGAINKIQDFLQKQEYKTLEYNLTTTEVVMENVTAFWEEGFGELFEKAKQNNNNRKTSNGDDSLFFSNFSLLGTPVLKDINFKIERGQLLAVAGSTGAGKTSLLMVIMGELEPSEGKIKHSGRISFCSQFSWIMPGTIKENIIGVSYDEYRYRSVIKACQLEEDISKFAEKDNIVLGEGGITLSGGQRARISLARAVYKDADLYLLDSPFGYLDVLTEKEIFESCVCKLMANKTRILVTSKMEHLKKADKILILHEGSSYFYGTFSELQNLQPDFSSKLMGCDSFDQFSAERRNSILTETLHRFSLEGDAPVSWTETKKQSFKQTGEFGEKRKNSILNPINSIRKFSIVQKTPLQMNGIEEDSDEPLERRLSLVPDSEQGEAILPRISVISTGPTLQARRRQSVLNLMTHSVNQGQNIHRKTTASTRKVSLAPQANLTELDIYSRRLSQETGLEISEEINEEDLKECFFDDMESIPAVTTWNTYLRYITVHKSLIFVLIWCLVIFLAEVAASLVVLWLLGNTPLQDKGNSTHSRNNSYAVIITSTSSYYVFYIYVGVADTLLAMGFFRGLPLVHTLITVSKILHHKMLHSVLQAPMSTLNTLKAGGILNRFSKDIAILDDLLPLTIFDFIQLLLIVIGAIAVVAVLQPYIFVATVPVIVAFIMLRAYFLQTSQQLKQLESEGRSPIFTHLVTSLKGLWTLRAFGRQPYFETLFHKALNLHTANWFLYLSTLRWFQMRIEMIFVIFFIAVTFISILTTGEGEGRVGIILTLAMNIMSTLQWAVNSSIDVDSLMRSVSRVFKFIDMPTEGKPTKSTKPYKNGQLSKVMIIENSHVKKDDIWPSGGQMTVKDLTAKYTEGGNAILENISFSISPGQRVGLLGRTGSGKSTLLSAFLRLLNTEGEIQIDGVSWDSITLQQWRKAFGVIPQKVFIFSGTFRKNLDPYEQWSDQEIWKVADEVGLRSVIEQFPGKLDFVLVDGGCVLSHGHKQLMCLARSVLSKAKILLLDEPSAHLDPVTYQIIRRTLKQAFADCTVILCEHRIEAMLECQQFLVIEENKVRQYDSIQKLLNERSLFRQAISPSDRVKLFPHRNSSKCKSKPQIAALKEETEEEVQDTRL

SMILES	Emax [%]	EC50 [µM]
CC(C)Oc1nc(C(C)(C)C)ccc1C(=O)NS(=O)(=O)c1cccc(N)n1 [Compound 45, N-[(6-amino-2-pyridyl)sulfonyl]-6-tert-butyl-2-isopropoxy-pyridine-3-carboxamide]	30 to 80	3 to 10
CCN(CC)c1nc(-c2cc(F)cc(OCC(C)C)c2)ccc1C(=O)NS(=O)(=O)c1ccn[nH]1 [Compound 46, 2-(diethylamino)-6-(3-fluoro-5-isobutoxy-phenyl)-N-(1H-pyrazol-5-ylsulfonyl)pyridine-3-carboxamide]	30 to 80	< 3
CCC(CC)Oc1nc(-c2cc(F)cc(OCC(C)C)c2)ccc1C(=O)NS(=O)(=O)c1cccc(N)n1 [Compound 47, N-[(6-amino-2-pyridyl)sulfonyl]-2-(1-ethylpropoxy)-6-(3-fluoro-5-isobutoxy-phenyl)pyridine-3-carboxamide]	> 80	< 3
CC(C)COc1cc(F)cc(-c2ccc(C(=O)NS(=O)(=O)c3cccc(N)n3)c(OCC(F)(F)F)n2)c1 [Compound 48, N-[(6-amino-2-pyridyl)sulfonyl]-6-(3-fluoro-5-isobutoxy-phenyl)-2-(2,2,2-trifluoroethoxy)pyridine-3-carboxamide]	30 to 80	3 to 10
C=C(C)COc1nc(-c2cc(F)cc(OCC(C)C)c2)ccc1C(=O)NS(=O)(=O)c1cccc(N)n1 [Compound 49, N-[(6-amino-2-pyridyl)sulfonyl]-6-(3-fluoro-5-isobutoxy-phenyl)-2-(2-methylallyloxy)pyridine-3-carboxamide]	> 80	< 3
CC(C)COc1cc(F)cc(-c2ccc(C(=O)NS(=O)(=O)c3ccn[nH]3)c(NCCC(C)(C)C)n2)c1 [Compound 50, 2-(3,3-dimethylbutylamino)-6-(3-fluoro-5-isobutoxy-phenyl)-N-(1H-pyrazol-5-ylsulfonyl)pyridine-3-carboxamide]	30 to 80	3 to 10
COCC(C)(C)Oc1nc(-c2cc(F)cc(OCC(C)C)c2)ccc1C(=O)NS(=O)(=O)c1cccc(N)n1 [Compound 51, N-[(6-amino-2-pyridyl)sulfonyl]-6-(3-fluoro-5-isobutoxy-phenyl)-2-(2-methoxy-1,1-dimethyl-ethoxy)pyridine-3-carboxamide]	30 to 80	< 3
CC(C)COc1cc(F)cc(-c2ccc(C(=O)NS(=O)(=O)c3cccc(N)n3)c(N(C)CC(C)(C)C)n2)c1 [Compound 52, N-[(6-amino-2-pyridyl)sulfonyl]-2-[2,2-dimethylpropyl(methyl)amino]-6-(3-fluoro-5-isobutoxy-phenyl)pyridine-3-carboxamide]	> 80	< 3
CCN(CC)c1nc(-c2cc(F)cc(OCC(C)C)c2)ccc1C(=O)NS(=O)(=O)c1cccc(N)n1 [Compound 53, N-[(6-amino-2-pyridyl)sulfonyl]-2-(diethylamino)-6-(3-fluoro-5-isobutoxy-phenyl)pyridine-3-carboxamide]	> 80	< 3
CC(C)COc1cc(F)cc(-c2ccc(C(=O)NS(=O)(=O)c3cccc(N)n3)c(NC(C)C(C)C)n2)c1 (centres unmarked) [Compound 54, N-[(6-amino-2-pyridyl)sulfonyl]-2-(1,2-dimethylpropylamino)-6-(3-fluoro-5-isobutoxy-phenyl)pyridine-3-carboxamide]	30 to 80	3 to 10
CC(C)COc1cc(F)cc(-c2ccc(C(=O)NS(=O)(=O)c3cccc(N)n3)c(OCCOC(C)C)n2)c1 [Compound 55, N-[(6-amino-2-pyridyl)sulfonyl]-6-(3-fluoro-5-isobutoxy-phenyl)-2-(2-isopropoxyethoxy)pyridine-3-carboxamide]	30 to 80	< 3
CCCC(C)Oc1nc(-c2cc(F)cc(OCC(C)C)c2)ccc1C(=O)NS(=O)(=O)c1cccc(N)n1 (centres unmarked) [Compound 56, N-[(6-amino-2-pyridyl)sulfonyl]-6-(3-fluoro-5-isobutoxy-phenyl)-2-(1-methylbutoxy)pyridine-3-carboxamide]	> 80	< 3
CC(C)COc1cc(F)cc(-c2ccc(C(=O)NS(=O)(=O)c3cccc(N)n3)c(OCC(C)(F)F)n2)c1 [Compound 57, N-[(6-amino-2-pyridyl)sulfonyl]-2-(2,2-difluoropropoxy)-6-(3-fluoro-5-isobutoxy-phenyl)pyridine-3-carboxamide]	30 to 80	< 3
CC(C)COc1cc(F)cc(-c2ccc(C(=O)NS(=O)(=O)c3cccc(N)n3)c(NC(C)(C)C)n2)c1 [Compound 58, N-[(6-amino-2-pyridyl)sulfonyl]-2-(tert-butylamino)-6-(3-fluoro-5-isobutoxy-phenyl)pyridine-3-carboxamide]	> 80	< 3
CC[C@@H](C)Oc1nc(-c2cc(F)cc(OCC(C)C)c2)ccc1C(=O)NS(=O)(=O)c1cccc(N)n1 [Compound 59, N-[(6-amino-2-pyridyl)sulfonyl]-6-(3-fluoro-5-isobutoxy-phenyl)-2-[(1R)-1-methylpropoxy]pyridine-3-carboxamide]	30 to 80	< 3
COCCOc1nc(-c2cc(F)cc(OCC(C)C)c2)ccc1C(=O)NS(=O)(=O)c1cccc(N)n1 [Compound 60, N-[(6-amino-2-pyridyl)sulfonyl]-6-(3-fluoro-5-isobutoxy-phenyl)-2-(2-methoxyethoxy)pyridine-3-carboxamide]	30 to 80	< 3
CC(C)COc1cc(F)cc(-c2ccc(C(=O)NS(=O)(=O)c3cccc(N)n3)c(N(C)CC(C)C)n2)c1 [Compound 61, N-[(6-amino-2-pyridyl)sulfonyl]-6-(3-fluoro-5-isobutoxy-phenyl)-2-[isobutyl(methyl)amino]pyridine-3-carboxamide]	> 80	< 3
CCCC(C)C(C)Oc1nc(-c2cc(F)cc(OCC(C)C)c2)ccc1C(=O)NS(=O)(=O)c1cccc(N)n1 (centres unmarked) [Compound 62, N-[(6-amino-2-pyridyl)sulfonyl]-2-(1,2-dimethylpentoxy)-6-(3-fluoro-5-isobutoxy-phenyl)pyridine-3-carboxamide]	30 to 80	< 3
CCCCOc1nc(-c2cc(F)cc(OCC(C)C)c2)ccc1C(=O)NS(=O)(=O)c1cccc(N)n1 [Compound 63, N-[(6-amino-2-pyridyl)sulfonyl]-2-butoxy-6-(3-fluoro-5-isobutoxy-phenyl)pyridine-3-carboxamide]	> 80	< 3
CCCN(C)c1nc(-c2cc(F)cc(OCC(C)C)c2)ccc1C(=O)NS(=O)(=O)c1cccc(N)n1 [Compound 64, N-[(6-amino-2-pyridyl)sulfonyl]-6-(3-fluoro-5-isobutoxy-phenyl)-2-[methyl(propyl)amino]pyridine-3-carboxamide]	> 80	< 3
COC[C@@H](C)Oc1nc(-c2cc(F)cc(OCC(C)C)c2)ccc1C(=O)NS(=O)(=O)c1cccc(N)n1 [Compound 65, N-[(6-amino-2-pyridyl)sulfonyl]-6-(3-fluoro-5-isobutoxy-phenyl)-2-[(1R)-2-methoxy-1-methyl-ethoxy]pyridine-3-carboxamide]	30 to 80	< 3
CC(C)COc1cc(F)cc(-c2ccc(C(=O)NS(=O)(=O)c3cccc(N)n3)c(N(C)CC(F)(F)F)n2)c1 [Compound 66, N-[(6-amino-2-pyridyl)sulfonyl]-6-(3-fluoro-5-isobutoxy-phenyl)-2-[methyl(2,2,2-trifluoroethyl)amino]pyridine-3-carboxamide]	> 80	< 3
